The NIST ThermoML archive (doi:10.1021/acs.jced.7b00257)

Assay: mn = molality of the nth substance listed, in mol/kg
Conditions: 100 kPa, Liquid; for speed of sound: Frequency=3 MHz, Sing-around technique in a fixed-path interferometer; for mass density: Vibrating tube method

N.O=P(O)(O)O [ammonium dihydrogen phosphate] + O
Conditions	mass density, 288.15 K [kg/m3]	mass density, 298.15 K [kg/m3]	mass density, 308.15 K [kg/m3]	mass density, 318.15 K [kg/m3]	speed of sound, 288.15 K [m/s]	speed of sound, 298.15 K [m/s]	speed of sound, 308.15 K [m/s]	speed of sound, 318.15 K [m/s]
m1 = 0.5	1029.89	1026.93	1023.68	1019.89	1507.2	1534.7	1555.7	1570.8
m1 = 1	1057.21	1054.11	1050.64	1046.76	1544.3	1569.5	1588.6	1602.3
m1 = 1.5	1082.49	1079.39	1075.63	1071.69	1579.5	1602.2	1619.5	1631.7
m1 = 2	1105.65	1102.5	1098.68	1094.7	1613.6	1634.1	1649.6	1660.4
